Patent US20240376074A1, “NAMPT INHIBITORS AND USES THEREOF” (Remedy Plan, Inc., priority 2021, published 2024)

Target: T1, NAMPT (Homo sapiens, UniProt P43490)
T1 construct: purchased Abcam ab221819
Experiment: NAMPT Activity Assay (Abcam #ab221819)
Assay type: biochemical
Conditions: purified NAMPT, percent inhibition from OD450 nm; compound concentration not given
Description: The NAMPT Activity Assay (Abcam #ab221819) was performed following manufacturers two-step reaction protocol. Briefly, compounds were added to a clear 96-well plate using the HP D300e Digital Dispenser. Purified NAMPT was added to all wells except the No NAMPT controls. Reaction Mix #1 was added to each well and the plate was incubated at 30*C for 1 hr followed by the addition of Reaction Mix #2. Absorbance was measured at OD450 nm using a multimode plate reader. Readings were recorded for 5 minutes and percent inhibition was calculated using: (1-(OD450 nm compound/OD450nm no drug))*100.

T1 sequence (P43490 whole entry): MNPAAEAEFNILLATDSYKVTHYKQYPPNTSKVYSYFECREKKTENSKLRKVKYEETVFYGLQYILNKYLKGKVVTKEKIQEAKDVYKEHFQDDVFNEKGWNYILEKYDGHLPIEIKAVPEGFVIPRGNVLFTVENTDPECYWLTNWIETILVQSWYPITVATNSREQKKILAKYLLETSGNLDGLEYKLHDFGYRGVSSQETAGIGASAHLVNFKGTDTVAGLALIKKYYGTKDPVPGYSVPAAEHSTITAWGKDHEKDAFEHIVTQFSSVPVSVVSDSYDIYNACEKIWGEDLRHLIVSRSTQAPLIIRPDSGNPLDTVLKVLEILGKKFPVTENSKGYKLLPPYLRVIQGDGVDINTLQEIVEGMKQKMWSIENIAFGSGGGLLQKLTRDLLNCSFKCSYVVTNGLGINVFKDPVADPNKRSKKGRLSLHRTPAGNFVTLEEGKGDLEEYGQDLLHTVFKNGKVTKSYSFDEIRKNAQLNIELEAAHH

Row | NAMPT Inhibition Code* | Structure (SMILES)
1 | A (*A = <33% inhibition) | CC(=O)N(CC1CC1)c1ccc(-c2ccc(C(=O)NCC3CC(F)(F)C3)cn2)cc1Cl [I-T2345, 6-[4-[acetyl(cyclopropylmethyl)amino]-3-chloro-phenyl]-N-[(3,3-difluorocyclobutyl)methyl]pyridine-3-carboxamide]
2 | A (*A = <33% inhibition) | CC(=O)N(CC1CC1)c1ccc(-c2ccc(NC(=O)CC3CCCCC3)cn2)cc1Cl [I-T2394, N-[6-[4-[acetyl(cyclopropylmethyl)amino]-3-chloro-phenyl]-3-pyridyl]-2-cyclohexyl-acetamide]
3 | B (B = >33 to <66% inhibition) | CC(=O)N(CC1CC1)c1ccc(-c2ccc(C(=O)NCc3ccsc3)cn2)cc1Cl [I-T2149, 6-[4-[Acetyl(cyclopropylmethyl)amino]-3-chloro-phenyl]-N-(3-thienylmethyl)pyridine-3-carboxamide]
4 | C (C = ≥66% inhibition) | CC(=O)N(CC1CC1)c1ccc(-c2ccc(C(=O)NCCCc3cn[nH]c3)cn2)cc1F [I-T2302, 6-[4-[acetyl(cyclopropylmethyl)amino]-3-fluoro-phenyl]-N-[3-(1H-pyrazol-4-yl)propyl]pyridine-3-carboxamide]
5 | C (C = ≥66% inhibition) | COC(=O)c1cc(-c2ccc(C(=O)Nc3cnc4nccn4c3)cn2)ccc1N(CC1CC1)C(C)=O [I-T2295, Methyl 2-[acetyl(cyclopropylmethyl)amino]-5-[5-(imidazo[1,2-a]pyrimidin-6-ylcarbamoyl)-2-pyridyl]benzoate]
6 | C (C = ≥66% inhibition) | CC(=O)N(CC(F)F)c1ccc(-c2ccc(NC(=O)/C=C/c3cccnc3)cn2)cc1Cl [I-T2293, (E)-N-[6-[4-[acetyl(2,2-difluoroethyl)amino]-3-chloro-phenyl]-3-pyridyl]-3-(3-pyridyl)prop-2-enamide]
7 | C (C = ≥66% inhibition) | CC(=O)N(CC1CC1)c1ccc(-c2ccc(C(=O)NCCCc3cc[nH]n3)cn2)cc1C#N [I-T2313, 6-[4-[acetyl(cyclopropylmethyl)amino]-3-cyano-phenyl]-N-[3-(1H-pyrazol-5-yl)propyl]pyridine-3-carboxamide]
8 | C (C = ≥66% inhibition) | CC(=O)N(CC1CC1)c1ccc(-c2ccc(C(=O)NCCc3cccnc3)cn2)cc1Cl [I-T2130, 6-[4-[Acetyl(cyclopropylmethyl)amino]-3-chloro-phenyl]-N-[2-(3-pyridyl)ethyl]pyridine-3-carboxamide]
9 | A (*A = <33% inhibition) | CCOc1ccc(CNC(=O)c2ccc(-c3ccc(N(CC4CC4)C(C)=O)c(Cl)c3)nc2)cn1 [I-T2373, 6-[4-[acetyl(cyclopropylmethyl)amino]-3-chloro-phenyl]-N-[(6-ethoxy-3-pyridyl)methyl]pyridine-3-carboxamide]
10 | C (C = ≥66% inhibition) | COC(=O)c1cc(-c2ccc(C(=O)NCCc3cn[nH]c3)cn2)ccc1N(CC1CC1)C(C)=O [I-T2297, Methyl 2-[acetyl(cyclopropylmethyl)amino]-5-[5-[2-(1H-pyrazol-4-yl)ethylcarbamoyl]-2-pyridyl]benzoate]
11 | A (*A = <33% inhibition) | CC(=O)N(CC1CC1)c1ccc(-c2ccc(C(=O)NCc3cscn3)cn2)cc1Cl [I-T2354, 6-[4-[acetyl(cyclopropylmethyl)amino]-3-chloro-phenyl]-N-(thiazol-4-ylmethyl)pyridine-3-carboxamide]
12 | C (C = ≥66% inhibition) | CC(=O)N(CC1CC1)c1ccc(-c2ccc(NC(=O)COc3ccccc3)cn2)cc1Cl [I-T2328, N-[6-[4-[acetyl(cyclopropylmethyl)amino]-3-chloro-phenyl]-3-pyridyl]-2-phenoxy-acetamide]
13 | C (C = ≥66% inhibition) | CC(=O)N(CC1CC1)c1ccc(-c2ccc(C(=O)NCCCn3ccnc3)cn2)cc1Cl [I-T2128, 6-[4-[Acetyl(cyclopropylmethyl)amino]-3-chloro-phenyl]-N-(3-imidazol-1-ylpropyl)pyridine-3-carboxamide]
14 | C (C = ≥66% inhibition) | CC(=O)N(CC(F)F)c1ccc(-c2ccc(NC(=O)C3CC3c3cccnc3)cn2)cc1Cl (stereo not drawn) [I-T2294, N-[6-[4-[acetyl(2,2-difluoroethyl)amino]-3-chloro-phenyl]-3-pyridyl]-2-(3-pyridyl)cyclopropane carboxamide]
15 | C (C = ≥66% inhibition) | COC(=O)c1cc(-c2ccc(C(=O)NCCc3cccnc3)cn2)ccc1N(CC1CC1)C(C)=O [I-T2296, Methyl 2-[acetyl(cyclopropylmethyl)amino]-5-[5-[2-(3-pyridyl)ethylcarbamoyl]-2-pyridyl]benzoate]
16 | C (C = ≥66% inhibition) | CC(=O)N(CC(F)F)c1ccc(-c2ccc(C(=O)NCCCc3cc[nH]n3)cn2)cc1Cl [I-T2287, 6-[4-[Acetyl(2,2-difluoroethyl)amino]-3-chloro-phenyl]-N-[3-(1H-pyrazol-3-yl)propyl]pyridine-3-carboxamide]
17 | C (C = ≥66% inhibition) | CC(=O)N(CC1CC1)c1ccc(-c2ccc(C(=O)Nc3ccc4[nH]cnc4c3)cn2)cc1Cl [I-T2137, 6-[4-[Acetyl(cyclopropylmethyl)amino]-3-chloro-phenyl]-N-(1H-benzimidazol-5-yl)pyridine-3-carboxamide]
18 | C (C = ≥66% inhibition) | CC(=O)N(CC1CC1)c1ccc(-c2ccc(C(=O)Nc3cnc4nccn4c3)cn2)cc1Cl [I-T2140, 6-[4-[Acetyl(cyclopropylmethyl)amino]-3-chloro-phenyl]-N-imidazo[1,2-a]pyrimidin-6-yl-pyridine-3-carboxamide]
19 | A (*A = <33% inhibition) | CC(=O)N(CC1CC1)c1ccc(-c2ccc(C(=O)NCCN3CCCCC3)cn2)cc1Cl [I-T2339, 6-[4-[acetyl(cyclopropylmethyl)amino]-3-chloro-phenyl]-N-[2-(1-piperidyl)ethyl]pyridine-3-carboxamide]
20 | C (C = ≥66% inhibition) | CC(=O)N(CC1CC1)c1ccc(-c2ccc(C(=O)NCc3ccc(Br)nc3)cn2)cc1Cl [I-T2370, 6-[4-[acetyl(cyclopropylmethyl)amino]-3-chloro-phenyl]-N-[(6-bromo-3-pyridyl)methyl]pyridine-3-carboxamide]
21 | C (C = ≥66% inhibition) | CC(=O)N(CC1CC1)c1ccc(-c2ccc(NC(=O)/C=C/c3ccccc3)cn2)cc1Cl [I-T2329, (E)-N-[6-[4-[acetyl(cyclopropylmethyl)amino]-3-chloro-phenyl]-3-pyridyl]-3-phenyl-prop-2-enamide]
22 | A (*A = <33% inhibition) | CC(=O)N(CC1CC1)c1ccc(-c2ccc(NC(=O)Cc3cccnc3Cl)cn2)cc1Cl [I-T2392, N-[6-[4-[acetyl(cyclopropylmethyl)amino]-3-chloro-phenyl]-3-pyridyl]-2-(2-chloro-3-pyridyl)acetamide]
23 | C (C = ≥66% inhibition) | CC(=O)N(CC1CC1)c1ccc(-c2ccc(C(=O)NCc3ccc(C(F)F)nc3)cn2)cc1Cl [I-T2397, 6-[4-[acetyl(cyclopropylmethyl)amino]-3-chloro-phenyl]-N-[[6-(difluoromethyl)-3-pyridyl]methyl]pyridine-3-carboxamide]
24 | A (*A = <33% inhibition) | CC(=O)N(CC1CC1)c1ccc(-c2ccc(C(=O)NCCCc3cnn(C)c3)cn2)cc1Cl [I-T2366, 6-[4-[acetyl(cyclopropylmethyl)amino]-3-chloro-phenyl]-N-[3-(1-methylpyrazol-4-yl)propyl]pyridine-3-carboxamide]
